Assays:
[1] = tested on: A549; assay: Cytotoxicity against human A549 cells after 48 hrs by MTT assay; type: functional, cell-based; conditions: A549, 48 h
[2] = tested on: HL-60; assay: Cytotoxicity against human HL60 cells after 48 hrs by MTT assay; type: functional, cell-based; conditions: HL-60, 48 h
[3] = tested on: SW480; assay: Cytotoxicity against human SW480 cells after 48 hrs by MTT assay; type: functional, cell-based; conditions: SW480, 48 h
[4] = tested on: SMMC-7721; assay: Cytotoxicity against human SMMC7721 cells after 48 hrs by MTT assay; type: functional, cell-based; conditions: SMMC-7721, 48 h
[5] = Cytotoxicity against human HL7702 cells after 48 hrs by MTT assay; type: cell-based; conditions: L02, 48 h
[6] = Stability of the compound-ferric oxide complex; type: physicochemical
[7] = Metal chelating activity of the compound assessed as formation of iron-compound complex at 100 uM using FeCl3 by UV-vis spectrometry; type: physicochemical
[8] = Metal chelating activity of the compound assessed as formation of iron-compound complex at 100 uM using FeSO4 by UV-vis spectrometry; type: physicochemical
[9] = Binding affinity to ferric oxide assessed as dissociation degree at 1:1 ligand to metal ratio by UV-visible spectrophotometry
[10] = tested on: SMMC-7721; assay: Increase of cell survival in human SMMC7721 at 50 uM after 48 hrs by MTT assay in presence of deferoxamine; type: functional
[11] = tested on: SMMC-7721; assay: Induction of apoptosis in human SMMC7721 cells at 10 uM after 24 hrs using annexin-V FITC and propidium iodide staining by flow cytometry analysis; type: functional
[12] = tested on: SMMC-7721; assay: Induction of apoptosis in human SMMC7721 cells at 20 uM after 24 hrs using annexin-V FITC and propidium iodide staining by flow cytometry analysis; type: functional
[13] = tested on: SMMC-7721; assay: Induction of apoptosis in human SMMC7721 cells after 24 hrs using annexin-V FITC and propidium iodide staining by flow cytometry analysis; type: functional, cell-based
[14] = Selectivity ratio of IC50 for human HL7702 cells to IC50 for human SMMC7721 cells; type: ADME, cell-based, SMMC-7721; conditions: HL7702 cells versus SMMC7721 cells, read-out: Ratio IC50
[15] = Binding affinity to ferric oxide assessed as dissociation degree at 2:1 ligand to metal ratio by UV-visible spectrophotometry
[16] = tested on: SMMC-7721; assay: Cytotoxicity against human SMMC7721 cells assessed activity loss of cells at 5 uM after 48 hrs by MTT assay; type: functional

O=C(O)[C@H]1CC[C@]2(CC1)OO[C@]1(O2)C2CC3CC(C2)CC1C3
IC50 [1]: > 100 µM | IC50 [2]: > 100 µM | IC50 [3]: > 100 µM | IC50 [4]: > 100 µM | IC50 [5]: > 100 µM

O=C1CCC2(CC1)OOC1(O2)C2CC3CC(C2)CC1C3 (centres undefined)
IC50 [1]: > 100 µM | IC50 [2]: > 100 µM | IC50 [3]: > 100 µM | IC50 [4]: > 100 µM | IC50 [5]: > 100 µM

O=C(NO)C1CCC2(CC1)OOC1(OO2)C2CC3CC(C2)CC1C3 (centres undefined)
IC50 [1]: > 50 µM | IC50 [2]: > 50 µM | IC50 [3]: > 50 µM | IC50 [4]: > 50 µM | IC50 [5]: > 50 µM

O=C(NC1CCC2(CC1)OOC1(OO2)C2CC3CC(C2)CC1C3)c1ccc(O)c(O)c1 (centres undefined)
IC50 [1]: > 50 µM | IC50 [2]: 25 µM | IC50 [3]: > 50 µM | IC50 [4]: 33.8 µM | Stability [6]: Stable | Activity [7]: Active | Activity [8]: Active | Activity [9]: 36% | IC50 [5]: > 50 µM | Activity [10]: 10%

O=C(O)C1CCC2(CC1)OOC1(OO2)C2CC3CC(C2)CC1C3 (centres undefined)
IC50 [1]: > 100 µM | IC50 [2]: > 100 µM | IC50 [3]: > 100 µM | IC50 [4]: > 100 µM | IC50 [5]: > 100 µM

O=C(O)[C@H]1CC[C@@]2(CC1)OC[C@]1(OO2)C2CC3CC(C2)CC1C3
IC50 [1]: > 100 µM | IC50 [2]: > 100 µM | IC50 [3]: > 100 µM | IC50 [4]: > 100 µM | IC50 [5]: > 100 µM

O=C1CCC2(CC1)OOC1(OO2)C2CC3CC(C2)CC1C3
IC50 [1]: > 100 µM | IC50 [2]: > 100 µM | IC50 [3]: > 100 µM | IC50 [4]: > 100 µM | IC50 [5]: > 100 µM

O=C1CCC2(CC1)OCC1(OO2)C2CC3CC(C2)CC1C3 (centres undefined)
IC50 [1]: > 100 µM | IC50 [2]: > 100 µM | IC50 [3]: > 100 µM | IC50 [4]: > 100 µM | IC50 [5]: > 100 µM

Nc1ccc(O)c2ncccc12
IC50 [1]: > 50 µM | IC50 [2]: 13.8 µM | IC50 [3]: > 50 µM | IC50 [4]: > 50 µM | IC50 [5]: > 50 µM

O=C(NO)[C@H]1CC[C@]2(CC1)OO[C@]1(O2)C2CC3CC(C2)CC1C3 (mixture of isomers)
IC50 [1]: > 50 µM | IC50 [2]: > 50 µM | IC50 [3]: > 50 µM | IC50 [4]: > 50 µM | IC50 [5]: > 50 µM

O=C(NO)[C@H]1CC[C@@]2(CC1)OC[C@]1(OO2)C2CC3CC(C2)CC1C3 (mixture of isomers)
IC50 [1]: > 50 µM | IC50 [2]: > 50 µM | IC50 [3]: > 50 µM | IC50 [4]: > 50 µM | IC50 [5]: > 50 µM

O=C(N[C@H]1CC[C@]2(CC1)OO[C@]1(O2)C2CC3CC(C2)CC1C3)c1ccc(O)c(O)c1 (mixture of isomers)
IC50 [1]: > 50 µM | IC50 [2]: 31.2 µM | IC50 [3]: > 50 µM | IC50 [4]: > 50 µM | IC50 [5]: > 50 µM | Activity [10]: 10%

O=C(N[C@H]1CC[C@@]2(CC1)OC[C@]1(OO2)C2CC3CC(C2)CC1C3)c1ccc(O)c(O)c1 (mixture of isomers)
IC50 [1]: > 50 µM | IC50 [2]: 34.8 µM | IC50 [3]: > 50 µM | IC50 [4]: > 50 µM | IC50 [5]: > 50 µM | Activity [10]: 10%

Oc1ccc(NC2CCC3(CC2)OOC2(OO3)C3CC4CC(C3)CC2C4)c2cccnc12 (mixture of isomers)
IC50 [1]: 11.8 µM | IC50 [2]: 6 µM | IC50 [3]: > 50 µM | Activity [11]: 12.2% | Activity [12]: 33.2% | IC50 [4]: 7.5 µM | Stability [6]: Stable | Activity [13]: Dose-dependent effect | selectivity ratio [14]: 3.71 | Activity [7]: Active | Activity [8]: Active | Activity [15]: 18% | IC50 [5]: 27.7 µM | Activity [10]: 15%

Oc1ccc(N[C@H]2CC[C@]3(CC2)OO[C@]2(O3)C3CC4CC(C3)CC2C4)c2cccnc12 (mixture of isomers)
IC50 [1]: 15.9 µM | IC50 [2]: 8.1 µM | IC50 [3]: > 50 µM | IC50 [4]: 7.3 µM | selectivity ratio [14]: 3.52 | IC50 [5]: 25.7 µM | Activity [10]: 15%

Oc1ccc(N[C@H]2CC[C@@]3(CC2)OC[C@]2(OO3)C3CC4CC(C3)CC2C4)c2cccnc12 (mixture of isomers)
IC50 [1]: 23.9 µM | IC50 [2]: 6.6 µM | IC50 [3]: > 50 µM | IC50 [4]: 11 µM | selectivity ratio [14]: 3.28 | IC50 [5]: 36 µM | Activity [10]: 15%

O=C(N[C@H]1CC[C@]2(CC1)OC[C@]1(O2)C2CC3CC(C2)CC1C3)c1ccc(O)c(O)c1 (mixture of isomers)
IC50 [1]: > 50 µM | IC50 [2]: 35.5 µM | IC50 [3]: > 50 µM | IC50 [4]: > 50 µM | IC50 [5]: > 50 µM

O=C(NC1CCC2(CC1)OCC1(CO2)C2CC3CC(C2)CC1C3)c1ccc(O)c(O)c1 (mixture of isomers)
IC50 [1]: > 50 µM | IC50 [2]: 30.1 µM | IC50 [3]: > 50 µM | IC50 [4]: > 50 µM | IC50 [5]: > 50 µM

Oc1ccc(N[C@H]2CC[C@]3(CC2)OC[C@]2(O3)C3CC4CC(C3)CC2C4)c2cccnc12 (mixture of isomers)
IC50 [1]: 17.2 µM | IC50 [2]: 9.2 µM | IC50 [3]: > 50 µM | IC50 [4]: 12.6 µM | selectivity ratio [14]: 2.39 | IC50 [5]: 30.1 µM

Oc1ccc(NC2CCC3(CC2)OCC2(CO3)C3CC4CC(C3)CC2C4)c2cccnc12 (mixture of isomers)
IC50 [1]: 45.6 µM | IC50 [2]: 12.9 µM | IC50 [3]: > 50 µM | IC50 [4]: 20.3 µM | selectivity ratio [14]: 2.06 | IC50 [5]: 41.9 µM

C[C@H]1[C@@H](O)O[C@@H]2O[C@@]3(C)CC[C@H]4[C@H](C)CC[C@@H]1[C@@]24OO3 [ARTENIMOL]
IC50 [1]: 30.1 µM | IC50 [2]: 18.7 µM | IC50 [3]: > 100 µM | IC50 [4]: 13.8 µM | selectivity ratio [14]: 2.52 | IC50 [5]: 34.9 µM

CC(=O)N(O)CCCCCNC(=O)CCC(=O)N(O)CCCCCNC(=O)CCC(=O)N(O)CCCCCN [DEFEROXAMINE]
Activity [16]: 5%

O=C(O)c1ccc(O)c(O)c1 [PROTOCATECHUIC ACID]
IC50 [1]: > 50 µM | IC50 [2]: > 50 µM | IC50 [3]: > 50 µM | IC50 [4]: > 50 µM | IC50 [5]: > 50 µM

Source: ChEMBL document CHEMBL3612062, “Antitumor activity of endoperoxide-iron chelator conjugates-design, synthesis and biological evaluation” (Eur J Med Chem, 2015)
